US7858312B2, “Method of treating bladder and lower urinary tract syndromes” (Duke University, priority 1998, dated 2010)

Key:
α1dAR = biological target: T1, α1dAR (Homo sapiens, UniProt P25100); experiment: BMY7378 competition binding vs [125I]HEAT in human detrusor membranes, high affinity site; conditions: share of total binding sites with high affinity, two-site fit, n=13
T1 construct: from tissue; host or cells: human bladder detrusor smooth muscle membranes
T1 sequence (P25100 1-572): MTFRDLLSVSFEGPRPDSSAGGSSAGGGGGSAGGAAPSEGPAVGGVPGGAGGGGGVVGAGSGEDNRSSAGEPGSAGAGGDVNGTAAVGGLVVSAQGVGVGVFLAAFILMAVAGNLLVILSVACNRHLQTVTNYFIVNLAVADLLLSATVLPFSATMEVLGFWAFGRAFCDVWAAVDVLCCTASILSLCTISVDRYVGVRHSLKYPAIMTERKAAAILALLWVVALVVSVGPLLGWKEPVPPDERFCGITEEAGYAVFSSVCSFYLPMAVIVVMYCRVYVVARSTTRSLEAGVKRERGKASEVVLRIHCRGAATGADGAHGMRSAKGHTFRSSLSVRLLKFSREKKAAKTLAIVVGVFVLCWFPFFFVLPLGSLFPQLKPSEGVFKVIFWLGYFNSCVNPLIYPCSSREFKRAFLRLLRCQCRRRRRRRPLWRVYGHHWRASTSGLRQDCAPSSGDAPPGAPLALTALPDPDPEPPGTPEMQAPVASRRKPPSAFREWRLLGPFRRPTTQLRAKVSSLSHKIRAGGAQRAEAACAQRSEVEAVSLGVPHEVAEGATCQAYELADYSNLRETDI
Procedure: (§1) Human detrusor and rat bladder membrane preparation. Human detrusor and rat whole bladder was minced over dry ice, and suspended in cold lysis buffer (5 mM Tris HCl and 5 mM EDTA, pH 7.4) with protease inhibitors benzamidine (10 mg/ml), leupeptin (5 mg/ml), and soybean trypsin inhibitor (10 mg/ml) (Sigma Chemical Company; St. Louis, Mo.). A lysate was prepared with a Polytron PT 3000 (Brinkmann; Westbury, N.Y.) at 10,000 rpm for 10 seconds. After pelleting at 40,000×g for 15 minutes (Sorvall SM24 rotor), membranes were suspended in cold resuspension buffer (150 mM NaCl, 50 mM Tris-HCl, 5 mM EDTA, pH 7.4) with protease inhibitors, and kept on ice for immediate use (or stored at −70° C. for later use). Protein content was determined using the bicinchoninic assay (BCA) with bovine serum albumin (BSA) standards (Pierce; Rockford, Ill.).
(§2) Reaction conditions were as described above. Curves were fit with […] regression analysis using InPlot software (GraphPad).

α1aAR = biological target: T2, α1aAR (Homo sapiens, UniProt P35348); experiment: BMY7378 competition binding vs [125I]HEAT in human detrusor membranes, low affinity site; conditions: share of total binding sites with low affinity, two-site fit, n=13
T2 construct: from tissue; host or cells: human bladder detrusor smooth muscle membranes
T2 sequence (P35348 1-466): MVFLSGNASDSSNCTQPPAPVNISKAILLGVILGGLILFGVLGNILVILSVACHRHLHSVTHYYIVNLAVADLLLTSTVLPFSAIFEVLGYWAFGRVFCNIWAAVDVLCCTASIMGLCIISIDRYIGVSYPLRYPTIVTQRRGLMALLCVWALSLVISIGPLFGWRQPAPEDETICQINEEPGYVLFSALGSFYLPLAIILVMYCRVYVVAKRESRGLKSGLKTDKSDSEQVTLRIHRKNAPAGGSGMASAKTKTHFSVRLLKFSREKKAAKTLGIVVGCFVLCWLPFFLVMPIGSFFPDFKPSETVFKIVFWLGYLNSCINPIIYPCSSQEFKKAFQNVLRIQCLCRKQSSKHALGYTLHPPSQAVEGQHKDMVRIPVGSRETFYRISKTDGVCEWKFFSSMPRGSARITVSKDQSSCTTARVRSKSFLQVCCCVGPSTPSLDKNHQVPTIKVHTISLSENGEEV
Procedure: as §1, §2

α1bAR = biological target: T3, α1bAR (Homo sapiens, UniProt P35368); experiment: BMY7378 competition binding, membranes from rat-1 fibroblasts stably transfected with α1bAR (control); conditions: Control α1b: rat-1 fibroblast membranes stably transfected with α1bAR; read-out: pKi α1bAR (converted)
T3 construct: expressed in transfected cells; host or cells: rat-1 fibroblasts, stably transfected; membranes
T3 sequence (P35368 1-520): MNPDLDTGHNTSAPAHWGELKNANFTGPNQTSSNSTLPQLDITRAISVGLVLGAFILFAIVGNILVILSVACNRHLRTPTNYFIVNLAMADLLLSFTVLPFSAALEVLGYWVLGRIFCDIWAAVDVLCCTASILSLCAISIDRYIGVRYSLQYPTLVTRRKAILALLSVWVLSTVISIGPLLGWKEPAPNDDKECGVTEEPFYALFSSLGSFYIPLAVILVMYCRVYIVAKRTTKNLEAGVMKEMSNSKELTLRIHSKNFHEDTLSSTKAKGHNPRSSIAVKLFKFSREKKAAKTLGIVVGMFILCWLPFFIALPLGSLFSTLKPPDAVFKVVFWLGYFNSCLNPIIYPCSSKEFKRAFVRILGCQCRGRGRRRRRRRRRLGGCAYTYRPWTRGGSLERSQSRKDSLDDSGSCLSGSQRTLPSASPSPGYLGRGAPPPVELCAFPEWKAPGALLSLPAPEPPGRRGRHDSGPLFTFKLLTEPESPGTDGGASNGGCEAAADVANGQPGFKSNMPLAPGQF
From the text: as §2

α1ARs in human detrusor = experiment: [125I]HEAT saturation binding in human detrusor membranes; conditions: saturation binding isotherm, n=5
Procedure: as §1
Radioligand binding. All mRNA and protein studies described were performed using detrusor from each patient described above (n=13). […] Dried filters were then counted in a gamma counter. Specific binding was calculated by subtracting nonspecific binding from total binding. […] Total α1AR density was then determined in each detrusor sample as described above, using a saturating concentration of [^125I]HEAT (300 pM). […]

Structure (SMILES) | % High (α1dAR) | % Low (α1aAR) | Ki (α1bAR) | Kd (α1ARs in human detrusor)
COc1ccccc1N1CCN(CCN2C(=O)CC3(CCCC3)CC2=O)CC1 [BMY7378] | 66±3.1% | 35±3.1% | 7.94 µM | –
O=C1c2ccccc2CCC1CNCCc1ccc(O)c(I)c1 (stereo not shown) [[125I]HEAT] | – | – | – | 0.00013 ± 1.09e-06 µM
